In patent publication US11542475B2, “3D microphysiologic system” (Northwestern University, priority 2014, dated 2023):

Test system: OVGP1 expression in human fallopian epithelium
Assay: OVGP1 immunoblot of cultured fallopian epithelium lysate
Assay type: cell-based
Description: Human fallopian tissue was obtained from routine hysterectomies from women in their reproductive years (ages range from 26 to 50 years old) and who had not undergone exogenous hormonal treatment for at least three months prior to surgery. Informed consent was obtained from each patient and approval granted by the ethics committee of the Northwestern University. Human fallopian tissue was kept in the DMEM/F12 medium with 10% FBS on ice and processed within 24 hours. The tissue was washed with warm PBS solution two times before being transferred into warm dissection medium (Liebowitz 15 with 0.5% P/S and 10% FBS). After cleaning connective tissue from outside of the fallopian tissue, the fallopian tube was cut open and the inner epithelia layer was mechanically dissected using forceps. […] Tissue was cultured on 0.4 μm pore Millicell inserts (PICM03050, EMD Millipore Co, Billerica, Mass., USA) twelve-well plates with culture medium in a 37° C. and 5% CO2 incubator. Estrogen (E2) and progesterone (P4) used in tissue culture experiments were purchased from Sigma (St. Louis, Mo.).
Cultured human fallopian epithelia layers were homogenized with a minipestle in ice-cold lysis buffer (20 mM Tris-HCl, pH 8.0, 137 mM NaCl, 10% glycerol, 1% NP-40, 2 mM EDTA). Lysate normalized for protein content was loaded into NuPAGE 4-12% gradient Bis-Tris precast SDS-PAGE gels and transferred to a nitrocellulose membrane (Life Technologies, Carlsbad, Calif., USA). Blots were probed by polyclonal anti-OVGP1 antibody (LsBio, Cambridge, Mass.) overnight in 4° C. followed by anti-rabbit secondary antibody conjugated to horseradish peroxidase (Zymed, San Francisco, Calif.). Proteins were detected by ECL primer (GE HealthCare Life Sciences, Pittsburgh, Pa.) and exposed to X-ray film (Kodak, Rochester, N.Y.). The same blot was stripped using stripping buffer (Thermo Scientific, Hanover Park, Ill.) and re-probed with monoclonal anti-α-tubulin (Sigma, St. Louis, Mo.) followed by an anti-mouse secondary antibody conjugated to horseradish peroxidase. NIH ImageJ Imaging Software was used to quantify the density of western blot bands. Conditioned medium from fallopian epithelia cultures was collected and probed via western blot analysis using a polyclonal anti-hIGF1 antibody (abcam, Cambridge, Mass.). The blot was detected by the same method described above.

C[C@]12CC[C@@H]3c4ccc(O)cc4CC[C@H]3[C@@H]1CC[C@@H]2O [E2, estradiol]
OVGP1 expression in the fallopian lysate (7 days culture, P4 added to E2): induction
OVGP1 expression (28 days stepwise E2 and P4 treatment, P4 in the presence of E2): stimulated
